From ChEMBL document CHEMBL1141039, “Hepatitis C virus NS3-4A serine protease inhibitors: SAR of P'2 moiety with improved potency” (Bioorg Med Chem Lett, 2005)
pKi: −log10 of the molar value. Numbered stars: 1 amine (or outer) side, 2 acyl side, 3 side chain; on linkers, the order of the positions; unused ones are H or OH. Square brackets hold non-standard residues; d marks the D form. Peptide text beside a SMILES is read from it. * marks the point of attachment. Gly(piperidin-4-yl) = N[C@H](C(=O)O)C1CCNCC1; 2Nal = N[C@@H](Cc1ccc2ccccc2c1)C(=O)O; Isobutyloxycarbonyl = CC(C)COC(=O)*; Gly(cPent) = N[C@H](C(=O)O)C1CCCC1; X1 = CCCC(N[*:1])C(=O)C(=O)[*:2]; hPhe = N[C@@H](CCc1ccccc1)C(=O)O; Aad = N[C@@H](CCCC(=O)O)C(=O)O; Cha = N[C@@H](CC1CCCCC1)C(=O)O; Chg = N[C@H](C(=O)O)C1CCCCC1; Phg = N[C@H](C(=O)O)c1ccccc1; Tle = CC(C)(C)[C@H](N)C(=O)O; hSer = N[C@@H](CCO)C(=O)O; Nle = CCCC[C@H](N)C(=O)O; Boc = CC(C)(C)OC(=O)*; OBn = c1ccc(CO*)cc1; Bn = c1ccc(C*)cc1; OtBu = CC(C)(C)O*; tBu = CC(C)(C)*

Molecular target: NS3 (Hepatitis C virus, UniProt A3EZJ3)
Sequence (A3EZJ3 whole entry): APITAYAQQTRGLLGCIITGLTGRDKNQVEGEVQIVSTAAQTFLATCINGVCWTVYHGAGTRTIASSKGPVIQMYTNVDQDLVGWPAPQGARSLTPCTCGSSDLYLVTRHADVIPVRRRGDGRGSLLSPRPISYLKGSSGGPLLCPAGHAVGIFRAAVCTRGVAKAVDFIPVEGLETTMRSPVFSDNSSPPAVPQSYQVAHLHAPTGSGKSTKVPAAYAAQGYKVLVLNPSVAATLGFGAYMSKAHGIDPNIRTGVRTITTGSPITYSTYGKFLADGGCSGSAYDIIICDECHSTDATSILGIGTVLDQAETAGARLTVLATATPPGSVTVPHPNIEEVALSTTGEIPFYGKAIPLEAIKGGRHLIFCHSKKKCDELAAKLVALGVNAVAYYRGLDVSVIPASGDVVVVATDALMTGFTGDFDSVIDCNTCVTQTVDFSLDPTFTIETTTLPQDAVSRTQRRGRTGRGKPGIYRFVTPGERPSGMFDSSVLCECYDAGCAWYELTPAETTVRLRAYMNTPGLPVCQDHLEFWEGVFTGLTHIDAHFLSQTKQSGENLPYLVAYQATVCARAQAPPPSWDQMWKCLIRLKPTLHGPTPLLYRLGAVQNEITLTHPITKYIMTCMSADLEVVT
Test: Inhibitory activity against Hepatitis C virus NS3 serine protease in continuous spectrophotometric assay
Set-up: species or system Hepacivirus hominis

pKi | Structure (SMILES)
5.48 | CCCC(NC(=O)[C@H](CC(C)C)NC(=O)[C@@H](NC(=O)OCC(C)C)C1CCCCC1)C(=O)C(=O)NCC(=O)N[C@H](C(=O)O)C1CCN(C(=O)OC(C)(C)C)CC1 (some centres not stated)
4.09 | CCCC(NC(=O)[C@H](CC(C)C)NC(=O)[C@@H](NC(=O)OC(C)(C)C)C1CCCCC1)C(=O)C(=O)NCC(=O)NCc1ccccc1 (some centres not stated)
4.35 | CCCC(NC(=O)[C@@H]1CCCN1C(=O)[C@@H](NC(=O)OC(C)(C)C)C1CCCCC1)C(=O)C(=O)NCC(=O)NCc1ccccc1 (some centres not stated)
6.22 | CCCC(NC(=O)[C@H](CC(C)C)NC(=O)[C@@H](NC(=O)OC(C)(C)C)C1CCCCC1)C(=O)C(=O)NCC(=O)N[C@H](C(=O)OCc1ccccc1)c1ccccc1 (some centres not stated) (Boc-[Chg]L[X1]G[Phg]-OBn)
7.01 | CCCC(NC(=O)[C@H](CC(C)C)NC(=O)[C@@H](NC(=O)OC(C)(C)C)C1CCCCC1)C(=O)C(=O)NCC(=O)N[C@H](C(=O)O)c1ccccc1 (some centres not stated) (Boc-[Chg]L[X1]G[Phg]-OH)
4.26 | CCCC(NC(=O)[C@@H]1CCCN1C(=O)[C@@H](NC(=O)OCC(C)C)C(C)C)C(=O)C(=O)NCC(=O)N[C@@H](CC(=O)OC)C(=O)OC (some centres not stated) (Isobutyloxycarbonyl-VP[X1]GD(OMe)-OMe)
< 4.00 | CCCC(NC(=O)[C@@H]1CCCN1C(=O)[C@@H](NC(=O)OCC(C)C)C(C)C)C(=O)C(=O)NCC(=O)N[C@@H](CC(=O)O)C(=O)O (some centres not stated) (Isobutyloxycarbonyl-VP[X1]GD-OH)
4.70 | CCCC(NC(=O)[C@@H]1CCCN1C(=O)[C@@H](NC(=O)OCC(C)C)C(C)C)C(=O)C(=O)NCC(=O)N[C@@H](CCC(=O)OCC)C(=O)OC (some centres not stated) (Isobutyloxycarbonyl-VP[X1]GE(OEt)-OMe)
< 4.00 | CCCC(NC(=O)[C@@H]1CCCN1C(=O)[C@@H](NC(=O)OCC(C)C)C(C)C)C(=O)C(=O)NCC(=O)N[C@@H](CCC(=O)O)C(=O)O (some centres not stated) (Isobutyloxycarbonyl-VP[X1]GE-OH)
4.82 | CCCC(NC(=O)[C@@H]1CCCN1C(=O)[C@@H](NC(=O)OCC(C)C)C(C)C)C(=O)C(=O)NCC(=O)N[C@@H](Cc1ccccc1)C(N)=O (some centres not stated) (Isobutyloxycarbonyl-VP[X1]GF-NH2)
4.82 | CCCC(NC(=O)[C@@H]1CCCN1C(=O)[C@@H](NC(=O)OCC(C)C)C(C)C)C(=O)C(=O)NCC(=O)N[C@H](C(=O)O)[C@@H](C)CC (some centres not stated) (Isobutyloxycarbonyl-VP[X1]GI-OH)
4.82 | CCCC(NC(=O)[C@@H]1CCCN1C(=O)[C@@H](NC(=O)OCC(C)C)C(C)C)C(=O)C(=O)NCC(=O)N[C@H](C(=O)OC)[C@@H](C)CC (some centres not stated) (Isobutyloxycarbonyl-VP[X1]GI-OMe)
4.09 | CCCC(NC(=O)[C@@H]1CCCN1C(=O)[C@@H](NC(=O)OCC(C)C)C(C)C)C(=O)C(=O)NCC(=O)N[C@@H](CCCCN)C(N)=O (some centres not stated) (Isobutyloxycarbonyl-VP[X1]GK-NH2)
4.80 | CCCC(NC(=O)[C@@H]1CCCN1C(=O)[C@@H](NC(=O)OCC(C)C)C(C)C)C(=O)C(=O)NCC(=O)N[C@@H](CC(C)C)C(N)=O (some centres not stated) (Isobutyloxycarbonyl-VP[X1]GL-NH2)
5.46 | CCCC(NC(=O)[C@@H]1CCCN1C(=O)[C@@H](NC(=O)OCC(C)C)C(C)C)C(=O)C(=O)NCC(=O)N[C@@H](COCc1ccccc1)C(N)=O (some centres not stated) (Isobutyloxycarbonyl-VP[X1]GS(Bn)-NH2)
4.92 | CCCC(NC(=O)[C@@H]1CCCN1C(=O)[C@@H](NC(=O)OCC(C)C)C(C)C)C(=O)C(=O)NCC(=O)N[C@@H](Cc1ccc2ccccc2c1)C(N)=O (some centres not stated) (Isobutyloxycarbonyl-VP[X1]G[2Nal]-NH2)

pKi | Structure (SMILES)
4.74 | CCCC(NC(=O)[C@@H]1CCCN1C(=O)[C@@H](NC(=O)OCC(C)C)C(C)C)C(=O)C(=O)NCC(=O)N[C@@H](CCCC(=O)O)C(N)=O (some centres not stated) (Isobutyloxycarbonyl-VP[X1]G[Aad]-NH2)
5.10 | CCCC(NC(=O)[C@@H]1CCCN1C(=O)[C@@H](NC(=O)OCC(C)C)C(C)C)C(=O)C(=O)NCC(=O)N[C@@H](CC1CCCCC1)C(N)=O (some centres not stated) (Isobutyloxycarbonyl-VP[X1]G[Cha]-NH2)
5.59 | CCCC(NC(=O)[C@@H]1CCCN1C(=O)[C@@H](NC(=O)OCC(C)C)C(C)C)C(=O)C(=O)NCC(=O)N[C@H](C(N)=O)C1CCCCC1 (some centres not stated) (Isobutyloxycarbonyl-VP[X1]G[Chg]-NH2)
5.68 | CCCC(NC(=O)[C@@H]1CCCN1C(=O)[C@@H](NC(=O)OCC(C)C)C(C)C)C(=O)C(=O)NCC(=O)N[C@H](C(N)=O)c1ccccc1 (some centres not stated) (Isobutyloxycarbonyl-VP[X1]G[Phg]-NH2)
4.28 | CCCC(NC(=O)[C@@H]1CCCN1C(=O)[C@@H](NC(=O)OCC(C)C)C(C)C)C(=O)C(=O)NCC(=O)N[C@H](C(N)=O)C(C)(C)C (some centres not stated) (Isobutyloxycarbonyl-VP[X1]G[Tle]-NH2)
5.17 | CCCC(NC(=O)[C@@H]1CCCN1C(=O)[C@@H](NC(=O)OCC(C)C)C(C)C)C(=O)C(=O)NCC(=O)N[C@@H](CCc1ccccc1)C(N)=O (some centres not stated) (Isobutyloxycarbonyl-VP[X1]G[hPhe]-NH2)
3.95 | CCCC(NC(=O)[C@@H]1CCCN1C(=O)[C@@H](NC(=O)OCC(C)C)C(C)C)C(=O)C(=O)NCC(=O)N[C@@H](CCO)C(N)=O (some centres not stated) (Isobutyloxycarbonyl-VP[X1]G[hSer]-NH2)
5.08 | CCCC(NC(=O)[C@H](CC(C)C)NC(=O)[C@@H](NC(=O)OCC(C)C)C1CCCCC1)C(=O)C(=O)NCC(=O)N[C@@H](CC(=O)O)C(N)=O (some centres not stated) (Isobutyloxycarbonyl-[Chg]L[X1]GD-NH2)
6.34 | CCCC(NC(=O)[C@H](CC(C)C)NC(=O)[C@@H](NC(=O)OCC(C)C)C1CCCCC1)C(=O)C(=O)NCC(=O)N[C@@H](COC(C)(C)C)C(N)=O (some centres not stated) (Isobutyloxycarbonyl-[Chg]L[X1]GS(tBu)-NH2)
5.59 | CCCC(NC(=O)[C@H](CC(C)C)NC(=O)[C@@H](NC(=O)OCC(C)C)C1CCCCC1)C(=O)C(=O)NCC(=O)N[C@H](C(N)=O)C(C)C (some centres not stated) (Isobutyloxycarbonyl-[Chg]L[X1]GV-NH2)
6.48 | CCCC(NC(=O)[C@H](CC(C)C)NC(=O)[C@@H](NC(=O)OCC(C)C)C1CCCCC1)C(=O)C(=O)NCC(=O)N[C@H](C(=O)O)C1CCCC1 (some centres not stated) (Isobutyloxycarbonyl-[Chg]L[X1]G[Gly(cPent)]-OH)
5.19 | CCCC(NC(=O)[C@H](CC(C)C)NC(=O)[C@@H](NC(=O)OCC(C)C)C1CCCCC1)C(=O)C(=O)NCC(=O)N[C@H](C(=O)O)C1CCNCC1 (some centres not stated) (Isobutyloxycarbonyl-[Chg]L[X1]G[Gly(piperidin-4-yl)]-OH)
6.55 | CCCC[C@H](NC(=O)CNC(=O)C(=O)C(CCC)NC(=O)[C@H](CC(C)C)NC(=O)[C@@H](NC(=O)OCC(C)C)C1CCCCC1)C(N)=O (some centres not stated) (Isobutyloxycarbonyl-[Chg]L[X1]G[Nle]-NH2)
6.92 | CCCC(NC(=O)[C@H](CC(C)C)NC(=O)[C@@H](NC(=O)OCC(C)C)C1CCCCC1)C(=O)C(=O)NCC(=O)N[C@H](C(=O)O)c1ccccc1 (some centres not stated) (Isobutyloxycarbonyl-[Chg]L[X1]G[Phg]-OH)
6.19 | CCCC(NC(=O)[C@H](CC(C)C)NC(=O)[C@@H](NC(=O)OCC(C)C)C1CCCCC1)C(=O)C(=O)NCC(=O)N[C@H](C(=O)OC(C)(C)C)c1ccccc1 (some centres not stated) (Isobutyloxycarbonyl-[Chg]L[X1]G[Phg]-OtBu)
6.44 | CCCC(NC(=O)[C@@H]1CCCN1C(=O)[C@@H](NC(=O)OCC(C)C)C1CCCCC1)C(=O)C(=O)NCC(=O)N[C@H](C(N)=O)c1ccccc1 (some centres not stated) (Isobutyloxycarbonyl-[Chg]P[X1]G[Phg]-NH2)
